Results on five molecules are retold here after patent publication US8394959B2, “Maleate salts of (E)-N-{4-[3-chloro-4-(2-pyridinylmethoxy)anilino]-3-cyano-7-ethoxy-6-quinolinyl)-4-(dimethylamino)-2-buteramide and crystalline forms thereof” (Wyeth LLC, priority 2007, dated 2013).

Converted amounts (≈) assume the structure as drawn. Like-named read-outs stand apart in the source and are kept apart here. Bounds are passed on as bounds.

Series [1] can be described thus: Physicochemical properties of maleate salt pilot batches. As to conditions: for Aqueous Solubility: footnote: s the free base.
Series [2] can be described thus: Solubility comparison of free base and maleate salt. To be noted: for pH of solution in 2% Tween 80 in water: solvent 2% Tween 80 in water; for pH of solution in Water: solvent water.
In series [3] the test system is emectic receptors in the stomach. The experiment in a line: Emectic receptor interaction / diarrhea in mammals. Type of series: in vivo. To be noted: in words.
Series [4] is described as follows: Compound pharmacokinetics (systemic exposure) in rats. Type of series: in vivo, rat. More on the design: AUC/Dose: unit not given here. As to conditions: for AUC(0-t): read-out: AUC0-24.
A short description of series [5]: Salt form screen: physicochemical properties (solubility, pH, hygroscopicity). To be noted: for pH: Table 1, pH of the solution.
A short description of series [6]: Dynamic vapor sorption (DVS) hygroscopicity. It counts as physicochemical. To be noted: DVS isotherm, FIG. 2; especially at 10% RH and below. An excerpt:
The relative stability and hygroscopicity of the two crystalline forms of the maleate salt was studied in detail by dynamic vapor sorption (DVS).

The conditions of series [7]: 20-25° C., relative humidity 50-60%, 24 hours, XRD.
Method: FIG. 7 illustrates an XRD scan of crystalline (E)-N-{4-[3-chloro-4-(2-pyridinylmethoxy)anilino]-3-cyano-7-ethoxy-6-quinolinyl}-4-(dimethylamino)-2-butenamide maleate in Form II, before and after exposure to relative humidity of 50-60% at an ambient temperature of 20-25° C. for 24 hours.
FIG. 8 is an XRD scan of crystalline (E)-N-{4-[3-chloro-4-(2-pyridinylmethoxy)anilino]-3-cyano-7-ethoxy-6-quinolinyl}-4-(dimethylamino)-2-butenamide maleate in Form I before (lower scan), and after (upper scan) exposure to relative humidity of 50-60% at room temperature of 20-25° C. for 24 hours.
A short description of series [8]: Solid state stability in closed and open containers at 40° C. and 75% RH. To be noted: closed and open containers at 40° C. and 75% RH. Type of series: physicochemical. An excerpt: Both Form I and Form II remained stable for 6 months under these conditions. […] Samples in the closed containers remained dry. HPLC purity analysis indicated no significant increase in degradation products in both open and closed conditions for up to 6 months.

The nature of series [9]: Water solubility and BCS classification of the free base. Type of series: physicochemical. An excerpt:
Pat. […] The compound is classified, based on the Biopharmaceutical Classification System, as a BCS Class IV compound (low water solubility and low permeability). […] The water solubility increases with decreasing pH as the compound becomes ionized. This compound is […] rate limiting. There is a need for a form of this compound with improved physicochemical properties.

The nature of the next series: physchem. As to conditions: aqueous with cosolvent or surfactant or cyclodextrin.
Where [10] appears, read: pilot batch Run 1, batch size 0.5 g.
The mark [11] stands for this setting: pilot batch Run 2, batch size 6.6 g.
[12] abbreviates: pilot batch Run 3, batch size 4 g.
Setting [13] is: plasma, oral, rat Female, 5 mg/kg, Day 28, mean (SE), N 3.
Where [14] appears, read: plasma, oral, rat Male, 5 mg/kg, Day 28, mean (SE), N 3.
The mark [15] stands for this setting: plasma, rat Female, 15 mg/kg, Day 28, mean (SE), N 3.
Where [16] appears, read: plasma, rat Male, 15 mg/kg, Day 28, mean (SE), N 3.
[17] abbreviates: plasma, oral, rat Male, 100 mg/kg, Day 10, mean (SE), N 3.
The mark [18] stands for this setting: plasma, rat Female, 30 mg/kg, Day 10, mean (SE), N 3.
[19] abbreviates: plasma, rat Male, 10 mg/kg, Day 10, mean (SE), N 3.
[20] abbreviates: plasma, rat Male, 30 mg/kg, Day 10, mean (SE), N 3.

Usually Cmax stands for the maximum level reached in the sampled fluid or tissue. Turning to `CCOc1cc2ncc(C#N)c(Nc3ccc(OCc4ccccn4)c(Cl)c3)c2cc1NC(=O)/C=C/CN(C)C.O=C(O)/C=C\C(=O)O` [Maleate salt], the “Solution pH” value in series [1] (setting [10]) was 5.11; in series [1] (setting [11]), 5.10; in series [1] (setting [12]), 5.15. Further, the results for the “Aqueous Solubility” value in series [1] (setting [10]), in series [1] (setting [11]) and in [1] (setting [12]) were 0.37 mg/g, 0.50 mg/g and 0.44 mg/g, respectively. Also, the solubility in [2] (2% Tween 80 in water, aqueous with cosolvent or surfactant or cyclodextrin) was found to be 1120 µg/mL; in series [2] (water, pH 5, water), 430 µg/mL; in series [5] it was 0.37 mg/g. Moreover, in [2], the “pH of solution in 2% Tween 80 in water” value is listed as “(pH 5.06)”. The “pH of solution in Water” value in series [2] is recorded as “(pH 5.00)”. The “emectic receptor interaction / diarrhea” value in series [3] is given as “minimizes emectic receptor interactions in mammals”. Also, the Cmax in [4] (setting [13]) came to 1380 ng/mL; in series [4] (setting [14]), 1200 ng/mL; in [4] (setting [15]) it was 3560 ng/mL; in [4] (plasma, rat Female, 45 mg/kg, Day 28, mean (SE), N 3) it was 4560 ng/mL; in [4] (setting [16]), 3420 ng/mL; in series [4] (plasma, rat Male, 45 mg/kg, Day 28, mean (SE), N 3), 4620 ng/mL. For the same molecule, the AUC(0-t) came out at 9530 ng·h/mL in [4] (setting [13]); 75600 ng·h/mL in series [4] (plasma, oral, rat Female, 45 mg/kg, Day 28, mean (SE), N 3); 8220 ng·h/mL in series [4] (setting [14]); 65100 ng·h/mL in [4] (plasma, oral, rat Male, 45 mg/kg, Day 28, mean (SE), N 3); 34200 ng·h/mL in series [4] (setting [15]); 30200 ng·h/mL in series [4] (setting [16]). The AUC/Dose in series [4] (rat Female, 5 mg/kg, Day 28, mean (SE), N 3) was 1907 (169); in series [4] (rat Female, 15 mg/kg, Day 28, mean (SE), N 3), 2278 (177); in series [4] (rat Female, 45 mg/kg, Day 28, mean (SE), N 3), 1681 (141); in series [4] (rat Male, 5 mg/kg, Day 28, mean (SE), N 3) it was 1645 (126); in series [4] (rat Male, 15 mg/kg, Day 28, mean (SE), N 3), 2014 (178); in series [4] (rat Male, 45 mg/kg, Day 28, mean (SE), N 3) it was 1446 (106). Also, the “increase in AUC as compared to the free base” value in [4] (rat, dose range of 5 to 45 mg/kg) was “two-fold”. In [5] (salt screen), the pH amounted to 5.11. The hygroscopicity entry in series [5] (salt screen, in words) was “less hygroscopic”.

For Fumarate, the pH in series [5] (salt screen) was determined as 3.53.

On to Tosylate, for which, in [5] (salt screen), the pH is given as 4.72. The solubility in [5] (salt screen, Table 1, water) worked out at 6.89 mg/g.

`CCOc1cc2ncc(C#N)c(Nc3ccc(OCc4ccccn4)c(Cl)c3)c2cc1NC(=O)/C=C/CN(C)C.O.O=C(O)/C=C\C(=O)O` [Form II]: in [6], the “relative humidity at which water is lost” value is not above 20 % RH. Moreover, the “form stability on exposure to ambient humidity” value in series [7] is “relatively stable”. This molecule also showed a time remained stable in series [8] of 6 months.

As usually defined, the AUC(0-inf) is total exposure, with the tail of the curve extrapolated. As for `CCOc1cc2ncc(C#N)c(Nc3ccc(OCc4ccccn4)c(Cl)c3)c2cc1NC(=O)/C=C/CN(C)C` [free base], the “Biopharmaceutical Classification System class” value in [9] (low water solubility and low permeability) is reported as “BCS Class IV”. The solubility in [9] (water, at about pH 7) is approximately 1 µg/mL (≈ 1.8 µM); in the series “physchem”, 50 µg/mL (≈ 89.8 µM). The “pH of solution in 2% Tween 80 in water” value in series [2] is “(pH 6.4)”. Besides, the “pH of solution in Water” value in series [2] is on record as “(pH 8.2)”. Moreover, the “emectic receptor interaction / diarrhea” value in series [3] is on record as “giving rise to diarrhea in mammals”. The Cmax in series [4] (setting [17]) was 3820 ng/mL; in series [4] (setting [18]), 2440 ng/mL; in series [4] (setting [19]), 814 ng/mL; in series [4] (plasma, rat Male, 20 mg/kg, Day 1, mean (SE), N 4) it was 1010 ng/mL; in series [4] (setting [20]) it was 1650 ng/mL. Moreover, the AUC(0-t) in [4] (setting [17]) was 58300 ng·h/mL; in series [4] (setting [18]) it was 25000 ng·h/mL; in series [4] (setting [19]) it was 6780 ng·h/mL; in series [4] (setting [20]), 20400 ng·h/mL. In series [4] (plasma, rat Male, 20 mg/kg, Day 1, mean (SE), N 4, footnote a: AUC0-∞), this molecule showed an AUC(0-inf) of 8510 ng·h/mL. Further, in series [4] (rat), the systemic availability is 20%. For the same molecule, the AUC/Dose is given as 832 (145) in [4] (rat Female, 30 mg/kg, Day 10, mean (SE), N 3); 678 (64) in series [4] (rat Male, 10 mg/kg, Day 10, mean (SE), N 3); 426 (81) in series [4] (rat Male, 20 mg/kg, Day 1, mean (SE), N 4); 680 (78) in series [4] (rat Male, 30 mg/kg, Day 10, mean (SE), N 3); 583 (125) in series [4] (rat Male, 100 mg/kg, Day 10, mean (SE), N 3).
